Source: PubChem BioAssay (NCI)
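Five compound concentrations were applied to cells in 96-well plates for 48 hours; endpoints were derived by simple linear interpolation of the resulting dose-response curve. Definition used: TGI = concentration required for complete inhibition of growth.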

Assays:
Experiment in all cases: growth of human tumour cells (NCI), 48 h
OVCAR-8 ovarian = tested on: OVCAR-8 ovarian
SF-295 CNS = tested on: SF-295 CNS
CAKI-1 renal = tested on: CAKI-1 renal
T-47D breast = tested on: T-47D breast
HCT-116 colon = tested on: HCT-116 colon
SK-MEL-28 melanoma = tested on: SK-MEL-28 melanoma
SNB-19 CNS = tested on: SNB-19 CNS
MDA-MB-231 breast = tested on: MDA-MB-231 breast
NCI/ADR-RES ovarian = tested on: NCI/ADR-RES ovarian
SW-620 colon = tested on: SW-620 colon
MCF7 breast = tested on: MCF7 breast
COLO 205 colon = tested on: COLO 205 colon
NCI-H460 lung = tested on: NCI-H460 lung
UACC-257 melanoma = tested on: UACC-257 melanoma
SF-268 CNS = tested on: SF-268 CNS
SK-OV-3 ovarian = tested on: SK-OV-3 ovarian
SN12C renal = tested on: SN12C renal
MDA-MB-435 = tested on: MDA-MB-435
SK-MEL-2 melanoma = tested on: SK-MEL-2 melanoma
RXF 393 renal = tested on: RXF 393 renal
OVCAR-4 ovarian = tested on: OVCAR-4 ovarian
OVCAR-3 ovarian = tested on: OVCAR-3 ovarian
SNB-75 CNS = tested on: SNB-75 CNS
PC-3 prostate = tested on: PC-3 prostate
NCI-H23 lung = tested on: NCI-H23 lung
HL-60(TB) leukemia = tested on: HL-60(TB) leukemia
IGROV1 ovarian = tested on: IGROV1 ovarian
HCT-15 colon = tested on: HCT-15 colon
UACC-62 melanoma = tested on: UACC-62 melanoma
HS 578T breast = tested on: HS 578T breast
OVCAR-5 ovarian = tested on: OVCAR-5 ovarian
DU-145 prostate = tested on: DU-145 prostate
EKVX NSCLC = tested on: EKVX NSCLC
KM12 colon = tested on: KM12 colon
SR leukemia = tested on: SR leukemia
HOP-92 NSCLC = tested on: HOP-92 NSCLC
RPMI-8226 leukemia = tested on: RPMI-8226 leukemia
ACHN renal = tested on: ACHN renal
HT29 colon = tested on: HT29 colon
MALME-3M melanoma = tested on: MALME-3M melanoma
UO-31 renal = tested on: UO-31 renal
SK-MEL-5 melanoma = tested on: SK-MEL-5 melanoma
HOP-62 NSCLC = tested on: HOP-62 NSCLC
SF-539 CNS = tested on: SF-539 CNS
MOLT-4 leukemia = tested on: MOLT-4 leukemia
U251 CNS = tested on: U251 CNS
A498 renal = tested on: A498 renal
BT-549 breast = tested on: BT-549 breast
K-562 leukemia = tested on: K-562 leukemia
CCRF-CEM leukemia = tested on: CCRF-CEM leukemia
M14 melanoma = tested on: M14 melanoma
786-0 renal = tested on: 786-0 renal
A549 NSCLC = tested on: A549 NSCLC
NCI-H226 lung = tested on: NCI-H226 lung
MDA-N = tested on: MDA-N
HCC-2998 colon = tested on: HCC-2998 colon
LOX IMVI melanoma = tested on: LOX IMVI melanoma
TK-10 renal = tested on: TK-10 renal

`CCOC(=O)CC(=O)Nc1cccc2[nH]cnc12` showed a TGI (OVCAR-8 ovarian) greater than 100 µM, a TGI (SF-295 CNS) greater than 100 µM and a TGI (CAKI-1 renal) greater than 100 µM. It also gave a TGI (T-47D breast) greater than 100 µM, a TGI (HCT-116 colon) greater than 100 µM and a TGI (SK-MEL-28 melanoma) greater than 100 µM. It also gave a TGI (SNB-19 CNS) greater than 100 µM, a TGI (MDA-MB-231 breast) greater than 100 µM and a TGI (NCI/ADR-RES ovarian) greater than 100 µM. The TGI (SW-620 colon) was greater than 100 µM, the TGI (MCF7 breast) was greater than 100 µM and the TGI (COLO 205 colon) was greater than 100 µM. For the same molecule, the TGI (NCI-H460 lung) was greater than 100 µM, the TGI (UACC-257 melanoma) was greater than 100 µM and the TGI (SF-268 CNS) was greater than 100 µM. The TGI (SK-OV-3 ovarian) was greater than 100 µM, the TGI (SN12C renal) was greater than 100 µM and the TGI (MDA-MB-435) was greater than 100 µM. The TGI (SK-MEL-2 melanoma) was greater than 100 µM, the TGI (RXF 393 renal) was greater than 100 µM and the TGI (OVCAR-4 ovarian) was greater than 100 µM. For the same molecule, the TGI (OVCAR-3 ovarian) was greater than 100 µM, the TGI (SNB-75 CNS) was 98.1 µM and the TGI (PC-3 prostate) was greater than 100 µM. It also gave a TGI (NCI-H23 lung) greater than 100 µM, a TGI (HL-60(TB) leukemia) greater than 100 µM and a TGI (IGROV1 ovarian) greater than 100 µM. The TGI (HCT-15 colon) was greater than 100 µM, the TGI (UACC-62 melanoma) was greater than 100 µM and the TGI (HS 578T breast) was greater than 100 µM. For the same molecule, the TGI (OVCAR-5 ovarian) was greater than 100 µM, the TGI (DU-145 prostate) was greater than 100 µM and the TGI (EKVX NSCLC) was greater than 100 µM. It also gave a TGI (KM12 colon) greater than 100 µM, a TGI (SR leukemia) greater than 100 µM and a TGI (HOP-92 NSCLC) greater than 100 µM. For the same molecule, the TGI (RPMI-8226 leukemia) was greater than 100 µM, the TGI (ACHN renal) was greater than 100 µM and the TGI (HT29 colon) was greater than 100 µM. It also gave a TGI (MALME-3M melanoma) greater than 100 µM, a TGI (UO-31 renal) greater than 100 µM and a TGI (SK-MEL-5 melanoma) greater than 100 µM. It also gave a TGI (HOP-62 NSCLC) greater than 100 µM, a TGI (SF-539 CNS) greater than 100 µM and a TGI (MOLT-4 leukemia) greater than 100 µM. For the same molecule, the TGI (U251 CNS) was greater than 100 µM, the TGI (A498 renal) was greater than 100 µM and the TGI (BT-549 breast) was greater than 100 µM. For the same molecule, the TGI (K-562 leukemia) was greater than 100 µM, the TGI (CCRF-CEM leukemia) was greater than 100 µM and the TGI (M14 melanoma) was greater than 100 µM. It also gave a TGI (786-0 renal) greater than 100 µM, a TGI (A549 NSCLC) greater than 100 µM and a TGI (NCI-H226 lung) greater than 100 µM. The TGI (MDA-N) was greater than 100 µM.
With `CCOP(=O)(OCC)C(C#N)Cc1ccco1` (stereo not drawn) the TGI (OVCAR-8 ovarian) was greater than 10 µM, the TGI (SF-295 CNS) was greater than 10 µM and the TGI (CAKI-1 renal) was greater than 10 µM. The TGI (T-47D breast) was greater than 10 µM, the TGI (HCT-116 colon) was greater than 10 µM and the TGI (SK-MEL-28 melanoma) was greater than 10 µM. For the same molecule, the TGI (HCC-2998 colon) was greater than 10 µM, the TGI (SNB-19 CNS) was greater than 10 µM and the TGI (MDA-MB-231 breast) was greater than 10 µM. It also gave a TGI (NCI/ADR-RES ovarian) greater than 10 µM, a TGI (SW-620 colon) greater than 10 µM and a TGI (MCF7 breast) greater than 10 µM. For the same molecule, the TGI (COLO 205 colon) was greater than 10 µM, the TGI (NCI-H460 lung) was greater than 10 µM and the TGI (UACC-257 melanoma) was greater than 10 µM. For the same molecule, the TGI (SF-268 CNS) was greater than 10 µM, the TGI (SK-OV-3 ovarian) was greater than 10 µM and the TGI (SN12C renal) was greater than 10 µM. The TGI (MDA-MB-435) was greater than 10 µM, the TGI (SK-MEL-2 melanoma) was greater than 10 µM and the TGI (RXF 393 renal) was greater than 10 µM. It also gave a TGI (LOX IMVI melanoma) greater than 10 µM, a TGI (OVCAR-4 ovarian) greater than 10 µM and a TGI (OVCAR-3 ovarian) greater than 10 µM. The TGI (SNB-75 CNS) was greater than 10 µM, the TGI (PC-3 prostate) was greater than 10 µM and the TGI (NCI-H23 lung) was greater than 10 µM. The TGI (HL-60(TB) leukemia) was greater than 10 µM, the TGI (IGROV1 ovarian) was greater than 10 µM and the TGI (HCT-15 colon) was greater than 10 µM. It also gave a TGI (UACC-62 melanoma) greater than 10 µM, a TGI (HS 578T breast) greater than 10 µM and a TGI (OVCAR-5 ovarian) greater than 10 µM. For the same molecule, the TGI (DU-145 prostate) was greater than 10 µM, the TGI (EKVX NSCLC) was greater than 10 µM and the TGI (KM12 colon) was greater than 10 µM. For the same molecule, the TGI (SR leukemia) was greater than 10 µM, the TGI (HOP-92 NSCLC) was greater than 10 µM and the TGI (RPMI-8226 leukemia) was greater than 10 µM. The TGI (ACHN renal) was greater than 10 µM, the TGI (HT29 colon) was greater than 10 µM and the TGI (MALME-3M melanoma) was greater than 10 µM. It also gave a TGI (UO-31 renal) greater than 10 µM, a TGI (SK-MEL-5 melanoma) greater than 10 µM and a TGI (HOP-62 NSCLC) greater than 10 µM. For the same molecule, the TGI (SF-539 CNS) was greater than 10 µM, the TGI (MOLT-4 leukemia) was greater than 10 µM and the TGI (U251 CNS) was greater than 10 µM. It also gave a TGI (TK-10 renal) greater than 10 µM, a TGI (A498 renal) greater than 10 µM and a TGI (BT-549 breast) greater than 10 µM. It also gave a TGI (K-562 leukemia) greater than 10 µM, a TGI (CCRF-CEM leukemia) greater than 10 µM and a TGI (M14 melanoma) greater than 10 µM. For the same molecule, the TGI (786-0 renal) was greater than 10 µM, the TGI (A549 NSCLC) was greater than 10 µM and the TGI (NCI-H226 lung) was greater than 10 µM. It also gave a TGI (MDA-N) greater than 10 µM.
